# From patent publication US20220380331A1, “TREATMENT OF CONDITIONS OF THE NERVOUS SYSTEM” (priority 2019, published 2022)
# How the values were obtained:
# [1] = system: PNN-HEK293 cells; test: Immunocytochemistry of PNN formation (WFA) with PNNi analogues; assay type: cell-based, human
# Experimental: To compare the efficacy of PNNi, JD009, and JD013 in reducing PNN formation, immunocytochemistry was conducted using the N-acetylgalactosamine-binding lectin WFA to label PNNs. PNN-HEK293 cells were exposed to 0.5 mM and 1 mM of the compounds for 3 days in vitro. […] Quantification of WFA fluorescence intensity per cell was derived in matched regions of interest (ROI) and normalising overall WFA fluorescence intensity to cell number.
# [2] = system: spinal cord injury; test: 8 weeks PNNi with sustained rehabilitation after spinal cord injury, hindlimb motor recovery; assay type: in vivo, rat; conditions: terminated 2-3 weeks before end, continued rehabilitative training
# Description: FIG. […]): Limiting PNNi administration alongside sustained rehabilitation allows further hindlimb (HL) motor recovery. […] Bar graph showing the percentage of animals that were able to achieve forelimb-hindlimb (FL-HL) coordination at 9 weeks post-injury (WPI) at the end of PNNi administration, 10 and 12 WPI (B). […] (For groups, n=10 and 9 for 8 week PNNi and 8 week PNNi+T, respectively. Statistics, A, C-E: two-way mixed factorial ANOVA; significance levels: *p<0.05 **p<0.01 and ***p<0.001. A, C, D: Error bars are ±SEM.) Training was comprised of distributed practice quadrupedal interval treadmill training to provide task-specific rehabilitation. The first session commenced 7 days post injury (DPI) following locomotor behavioural tests described below. Daily training consisted of 10 minutes on the treadmill, followed by a 10 minute break before a final 10 minute session on the treadmill. Rats were trained five times a week at the maximal speed that they could maintain consecutive stepping for each 10-minute session on the treadmill. In order to enhance plasticity for effective functional recovery, we administer PNNi for 8 weeks in combination with 11 weeks of rehabilitation. Limiting PNNi administration alongside sustained rehabilitation allows further hindlimb (HL) motor but not sensory recovery (FIG. 12). […]
# [3] = system: rats; conditions: cited from earlier work
# [4] = system: mice; conditions: 6.8-12.8 g/kg in mice continuously for 6 months
# [5] = system: acute contusive spinal cord injury; test: Basso, Beattie and Bresnahan (BBB) HL locomotor open field test after moderate T9 contusion injury; assay type: in vivo, rat; conditions: daily oral treatment, 5 weeks after injury, vehicle ~10
# Experimental: Adult female Lister-hooded rats (200-250 g) were obtained from Charles River Laboratories (Canterbury, UK). Rats were housed in pairs in Central Biomedical Services (University of Leeds, UK) in a temperature-controlled environment in (20±1° C.), with a 12 hr light/dark cycle (lights on at 07:00). All procedures and experiments complied with the UK Animals (Scientific Procedures) Act 1986. Using isofluorane as an anaesthetic (5% in 02 for induction and 1-2% in 02 for the duration of the procedure), animals were shaved and sterilised. Vertebral segments T7-13 were exposed and a dorsal laminectomy was performed at T8. Vertebral levels T7 and T8 were stabilised whilst an Infinite Horizon impactor (Precision Systems and Instrumentation, LLC, Fairfax Station, Va.) was used to provide a 200 kdyn Cx (moderate injury) at the level of T9. Muscles were sutured and the skin was closed with autoclips. Analgesia ([…] Buprenorphine; 0.015 mg/kg; Henry Schein Animal Health, Dumfries, UK) and antibiotics (Baytril enrofloxacin; 2.5 mg/kg; Henry Schein Animal Heath, Dumfries, UK) were given via subcutaneous injection immediately post-surgery and for three days following surgery. […] HL locomotor ability was assessed at various time points throughout the acute SCI paradigm using the BBB HL locomotor scale. […] Each BBB test was simultaneously assessed by two individuals. […]
compound,measurement,setting,value
"Cc1cc(=O)oc2cc(O)ccc12 [PNNi, 4-methylumbelliferone]",PNN morphology and expression (WFA fluorescence intensity per cell),"[1]; 0.5 mM and 1 mM, 3 days in vitro",insufficient to cause substantial changes in PNN morphology and expression
same,PNN morphology and expression (WFA staining intensity),[1]; 1 mM and 2 mM (FIG. 14 legend),insufficient to cause substantial changes in PNN morphology and expression
same,hindlimb (HL) motor recovery,[2],a further HL improvement was observed
same,maximum tolerated dose,"[3]; oral, rats",6000 mg/kg
same,dose tolerated in rats,"[3]; rat, in vivo",at least 200 mg/kg/day
same,mortality in the chronic study,"[3]; rats, 200 mg/kg/day and 40 mg/kg/day for three months",No mortality was reported
same,lethality and adverse signs,[4],did not show any lethality
same,BBB score,[5],~15 scores
